Laboratory results reported in ChEMBL document CHEMBL1201862, “PubChem BioAssay data set” (2004).
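Method: 48-hour compound exposure of cells in 96-well plates, five concentrations, linear interpolation of endpoints. GI50 marks 50% less growth.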 Calls of active or inactive are those of the source. Cut-off read from the data, not from the text of the source: active = GI50 up to about 1.1 µM and inactive = higher.

Tests used:
Assay in all cases: DTP human tumour cell line panel, 48 h
[1] = tested on: OVCAR-5
[2] = tested on: MOLT-4
[3] = tested on: OVCAR-4
[4] = tested on: HOP-92
[5] = tested on: U-251
[6] = tested on: HCT-15
[7] = tested on: NCI-H226
[8] = tested on: HOP-18
[9] = tested on: 786-0
[10] = tested on: UACC-62
[11] = tested on: KM12
[12] = tested on: COLO 205
[13] = tested on: SF-295
[14] = tested on: XF498
[15] = tested on: HL-60
[16] = tested on: TK-10
[17] = tested on: RPMI-8226
[18] = tested on: HT-29
[19] = tested on: SW-620
[20] = tested on: UO-31
[21] = tested on: DMS-273
[22] = tested on: SF-268
[23] = tested on: KM-20L2
[24] = tested on: ACHN
[25] = tested on: SN12C
[26] = tested on: SK-MEL-2
[27] = tested on: Malme-3M
[28] = tested on: K562
[29] = tested on: SF-539
[30] = tested on: LXFL 529
[31] = tested on: RXF 393
[32] = tested on: NCI-H522
[33] = tested on: SK-MEL-5
[34] = tested on: SNB-78
[35] = tested on: OVCAR-8
[36] = tested on: EKVX
[37] = tested on: HCC 2998
[38] = tested on: SNB-19
[39] = tested on: IGROV-1
[40] = tested on: DMS-114
[41] = tested on: A498
[42] = tested on: HOP-62
[43] = tested on: NCI-H23
[44] = tested on: UACC-257
[45] = tested on: SNB-75
[46] = tested on: CAKI-1
[47] = tested on: A549
[48] = tested on: NCI-H460
[49] = tested on: M14
[50] = tested on: CCRF-CEM
[51] = tested on: SK-OV-3
[52] = tested on: SK-MEL-28
[53] = tested on: OVCAR-3
[54] = tested on: LOX IMVI
[55] = tested on: DLD-1

Cn1nc(N)nc1N=S(C)(C)=N
GI50 [1]: > 100 µM (inactive) | GI50 [2]: > 100 µM (inactive) | GI50 [3]: > 100 µM (inactive) | GI50 [4]: > 100 µM (inactive) | GI50 [5]: > 100 µM (inactive) | GI50 [6]: > 100 µM | GI50 [7]: 72.4 µM (inactive) | GI50 [8]: > 100 µM (inactive) | GI50 [9]: > 100 µM (inactive) | GI50 [10]: > 100 µM (inactive) | GI50 [11]: > 100 µM (inactive) | GI50 [12]: > 100 µM (inactive) | GI50 [13]: > 100 µM (inactive) | GI50 [14]: > 100 µM (inactive) | GI50 [15]: > 100 µM (inactive) | GI50 [16]: > 100 µM (inactive) | GI50 [17]: > 100 µM (inactive) | GI50 [18]: > 100 µM (inactive) | GI50 [19]: > 100 µM (inactive) | GI50 [20]: 88.9 µM (inactive) | GI50 [21]: > 100 µM (inactive) | GI50 [22]: > 100 µM (inactive) | GI50 [23]: > 100 µM (inactive) | GI50 [24]: > 100 µM (inactive) | GI50 [25]: > 100 µM (inactive) | GI50 [26]: > 100 µM (inactive) | GI50 [27]: > 100 µM (inactive) | GI50 [28]: > 100 µM (inactive) | GI50 [29]: > 100 µM (inactive) | GI50 [30]: > 100 µM (inactive) | GI50 [31]: > 100 µM (inactive) | GI50 [32]: 83.9 µM (inactive) | GI50 [33]: > 100 µM (inactive) | GI50 [34]: > 100 µM (inactive) | GI50 [35]: > 100 µM (inactive) | GI50 [36]: > 100 µM (inactive) | GI50 [37]: > 100 µM (inactive) | GI50 [38]: > 100 µM (inactive) | GI50 [39]: > 100 µM (inactive) | GI50 [40]: > 100 µM (inactive) | GI50 [41]: > 100 µM (inactive) | GI50 [42]: > 100 µM (inactive) | GI50 [43]: > 100 µM (inactive) | GI50 [44]: > 100 µM (inactive) | GI50 [45]: > 100 µM (inactive) | GI50 [46]: > 100 µM (inactive) | GI50 [47]: > 100 µM (inactive) | GI50 [48]: > 100 µM (inactive) | GI50 [49]: > 100 µM (inactive) | GI50 [50]: > 100 µM (inactive) | GI50 [51]: > 100 µM (inactive) | GI50 [52]: > 100 µM (inactive) | GI50 [53]: > 100 µM (inactive)

Cc1n[nH]c(N)c1C(N)=O
GI50 [1]: > 100 µM (inactive) | GI50 [2]: > 100 µM (inactive) | GI50 [3]: > 100 µM (inactive) | GI50 [5]: > 10 µM (inactive) | GI50 [6]: > 100 µM | GI50 [8]: < 0.01 µM (active) | GI50 [10]: > 100 µM (inactive) | GI50 [11]: > 100 µM (inactive) | GI50 [12]: > 100 µM (inactive) | GI50 [13]: > 100 µM (inactive) | GI50 [14]: > 100 µM (inactive) | GI50 [15]: > 100 µM (inactive) | GI50 [16]: > 100 µM (inactive) | GI50 [17]: > 100 µM (inactive) | GI50 [18]: > 100 µM (inactive) | GI50 [19]: > 100 µM (inactive) | GI50 [20]: > 100 µM (inactive) | GI50 [21]: > 100 µM (inactive) | GI50 [22]: > 100 µM (inactive) | GI50 [23]: > 100 µM (inactive) | GI50 [24]: > 100 µM (inactive) | GI50 [25]: > 100 µM (inactive) | GI50 [26]: > 100 µM (inactive) | GI50 [27]: > 100 µM (inactive) | GI50 [54]: > 100 µM (inactive) | GI50 [28]: > 100 µM (inactive) | GI50 [29]: > 100 µM (inactive) | GI50 [30]: > 100 µM (inactive) | GI50 [31]: 21.5 µM (inactive) | GI50 [32]: > 100 µM (inactive) | GI50 [33]: > 100 µM (inactive) | GI50 [34]: > 100 µM (inactive) | GI50 [35]: > 100 µM (inactive) | GI50 [36]: > 100 µM (inactive) | GI50 [37]: > 100 µM (inactive) | GI50 [38]: > 100 µM (inactive) | GI50 [39]: > 100 µM (inactive) | GI50 [40]: > 100 µM (inactive) | GI50 [41]: > 100 µM (inactive) | GI50 [43]: > 100 µM (inactive) | GI50 [44]: > 100 µM (inactive) | GI50 [45]: > 100 µM (inactive) | GI50 [46]: > 100 µM (inactive) | GI50 [47]: > 100 µM (inactive) | GI50 [49]: > 100 µM (inactive) | GI50 [50]: > 100 µM (inactive) | GI50 [51]: > 100 µM (inactive) | GI50 [52]: > 100 µM (inactive) | GI50 [55]: > 100 µM (inactive)
